# Measured values from US9539298B2, “Lissencephaly therapeutic agent” (OSAKA CITY UNIVERSITY, priority 2010, dated 2017).
# Tested on: fibroblasts established from LIS1 heterozygous mice (MEF)
# Test: Change in intracellular protein localization by SNJ-1945 (immunocytochemistry)
# Format: cell-based, mouse
# Settings: 200 μM, 2 hours
# Procedure: A LIS1 gene hetero-deficient mice group and a wild-type mice (12.5- to 14.5-day-old embryos) group each consisting of five mice were prepared, and fibroblasts (MEF; mouse embryonic fibroblast) were established from each group in the same manner as above (more specifically, fibroblasts were established by grouping the same gene type). Using the cells, immunocytochemistry was performed as follows. The influence of SNJ-1945 on intracellular protein localization in each cell was analyzed. First, a slide glass (24×24 mm; Matsunami Glass Ind., Ltd.) washed beforehand with 0.1 N hydrochloric acid was placed on a 6-well plate (Nunc), and MEF cells were seeded in an amount of 1.0×10^5 cells per well in a D-MEM culture solution (containing 10% fetal bovine blood serum; Wako Pure Chemical Ind. Ltd.). Subsequently, the 6-well plate was cultured overnight at 37° C. under 5% CO2, and SNJ-1945 was added thereto so that the final concentration became 200 μM. The incubation was performed for another 2 hours under the same conditions.
# As a control experiment, the same experiment was performed by adding 1% dimethylsulfoxide (DMSO). After washing with phosphate buffer (PBS), the MEF cells were immobilized using 4% paraformaldehyde (Wako, 162-16065) (at room temperature, for 15 minutes). […] After incubation, the cells were washed well with PBS, and embedded using glycerol (Merck) for fluorescence microscope observation. […]
# After careful observation using a confocal laser microscope (TCS-SP5, Leica), the intracellular locations of the individual factors in MEF cells under varying conditions are classified into “cells clustered around the nucleus” and “cells distributed to the entire cytoplasm.” For each cell group, 10 samples, each of which consists of 10 arbitrarily extracted cells, i.e., 100 cells in total for each group, were evaluated, and the average value±standard deviation was calculated. […]
smiles,measurement,setting,value
"COCCOCCOC(=O)N[C@@H](CC(C)C)C(=O)N[C@@H](Cc1ccccc1)C(=O)C(=O)NC1CC1 [compound 17, ((1S)-1-((((1S)-1-Benzyl-2,3-dioxo-3-(cyclopropylamino)propyl)amino)carbonyl)-3-methylbutyl)carbamic acid 5-methoxy-3-oxapentyl ester]",LIS1 amount around the centrosome (intracellular localization),FIG. 2,the LIS1 amount can be recovered
same,cytoplasmatic dynein amount / localization,FIG. 3,the cytoplasmatic dynein amount can also be recovered
same,β-COP distribution,FIG. 4,the distribution is normalized
